# Test results reported in publication PMC2073845, “Tracer Studies of Potential Radiosensitizing Agents” (British Journal of Cancer, 1956).
# Read-outs that look alike come from different tables or passages of the source.
# Tests used:
# [1] = Differential absorption ratio (D.A.R.) of organs of rats carrying a Walker carcinoma after injection of the radio-labelled compound
# Text: (§1) OPO3Na2 OPO3Na2 OP03H2 ICOH3 CH3 CH3 131I I 82Br CH3 1311 OPO3Na2 OPO3Na2 OP03H2 I II III METHODS AND MATERIALS Counting.-y-emission from the halogens was the basis of detection. The simple technique of placing samples of the organs under a shielded counter could not be used since variations in the thickness of the organs would vary the sample- counter distance, leading to considerable counting errors. This type of error was reduced by locating the sample on a thin aluminium tray midway between two G-10-Pb glass-covered Geiger-Muller tubes in copper sheaths placed 10 cm. apart in a castle of 2 inch lead and connected in parallel to the same scaler. The 50 D. H. MARRIAN AND D. R. MAXWELL sensitivity of the arrangement was about 9000 c.p.m./,tC 52Br. Samples and backgrounds were counted to a standard error of 5 per cent or less. […] The hydroscopic salt (II) was dissolved in 0 9 per cent saline and the concentration determined by ultraviolet spectroscopy (absorption maxima at 232m,u. (M = 70,000) and 290 m,u. (M = 5,800) in 0-01N- hydrochloric acid). […] The purity of the solution was determined by paper electrophoresis at pH 7 (Markham and Smith, 1952). This clearly separated the organic compound from iodide ion, the former being detected by ultraviolet photography and the latter by spraying with starch solution and exposure to chlorine vapour. […]
# [2] = for injected compound in urine: 5 mg i.v.
# Text: OPO3Na2 OPO3Na2 OP03H2 ICOH3 CH3 CH3 131I I 82Br CH3 1311 OPO3Na2 OPO3Na2 OP03H2 I II III METHODS AND MATERIALS Counting.-y-emission from the halogens was the basis of detection. The simple technique of placing samples of the organs under a shielded counter could not be used since variations in the thickness of the organs would vary the sample- counter distance, leading to considerable counting errors. This type of error was reduced by locating the sample on a thin aluminium tray midway between two G-10-Pb glass-covered Geiger-Muller tubes in copper sheaths placed 10 cm. apart in a castle of 2 inch lead and connected in parallel to the same scaler. The 50 D. H. MARRIAN AND D. R. MAXWELL sensitivity of the arrangement was about 9000 c.p.m./,tC 52Br. Samples and backgrounds were counted to a standard error of 5 per cent or less. […] The hydroscopic salt (II) was dissolved in 0 9 per cent saline and the concentration determined by ultraviolet spectroscopy (absorption maxima at 232m,u. (M = 70,000) and 290 m,u. (M = 5,800) in 0-01N- hydrochloric acid). […] Exposure to chlorine vapour caused red spots of bromofluoroscein to appear on a yellow background. […] The iodinated compound (III), was dissolved in 0 9 per cent saline and neutralised by addition of sodium hydroxide solution. The purity of the solution was determined by paper electrophoresis at pH 7 (Markham and Smith, 1952). This clearly separated the organic compound from iodide ion, the former being detected by ultraviolet photography and the latter by spraying with starch solution and exposure to chlorine vapour. […] It was dissolved in 0 9 per cent saline before injection. […] C. for 4 hours at pH 4, 6, 7 and 9 and the reaction mixtures examined by paper electrophoresis. […] Animal experiments Rats carring a Walker carcinoma were used as previously described (Marrian and Maxwell, 1956). […] The radioactivity of these planchettes when the organs were being counted was used to calculate the differential absorption ratio (D.A.R.), (Marrian and Maxwell, 1956). In most experiments with the bromo-compound, the time required to count the organ necessitated a decay correction, calculated from the known half-life of 82Br-bromine (36 ? 0*2 hours). […] Upper curve: single counter. Lower curve: double counter. Ordinate: Percentage error in the count.
# chick fibroblasts = settings: cited from earlier work
# [3] = set-up: method as in Mitchell, 1955; Marrian and Maxwell, 1956; settings: after intravenous injection; ref Mitchell, 1955; Marrian and Maxwell, 1956; cited from earlier work
# [4] = Radioactivity in blood, plasma and urine as percentage of injected dose, tumour-bearing rats
# Text: OPO3Na2 OPO3Na2 OP03H2 ICOH3 CH3 CH3 131I I 82Br CH3 1311 OPO3Na2 OPO3Na2 OP03H2 I II III METHODS AND MATERIALS Counting.-y-emission from the halogens was the basis of detection. The simple technique of placing samples of the organs under a shielded counter could not be used since variations in the thickness of the organs would vary the sample- counter distance, leading to considerable counting errors. This type of error was reduced by locating the sample on a thin aluminium tray midway between two G-10-Pb glass-covered Geiger-Muller tubes in copper sheaths placed 10 cm. apart in a castle of 2 inch lead and connected in parallel to the same scaler. The 50 D. H. MARRIAN AND D. R. MAXWELL sensitivity of the arrangement was about 9000 c.p.m./,tC 52Br. Samples and backgrounds were counted to a standard error of 5 per cent or less. […] The hydroscopic salt (II) was dissolved in 0 9 per cent saline and the concentration determined by ultraviolet spectroscopy (absorption maxima at 232m,u. (M = 70,000) and 290 m,u. (M = 5,800) in 0-01N- hydrochloric acid). […] Exposure to chlorine vapour caused red spots of bromofluoroscein to appear on a yellow background. […] The iodinated compound (III), was dissolved in 0 9 per cent saline and neutralised by addition of sodium hydroxide solution. The purity of the solution was determined by paper electrophoresis at pH 7 (Markham and Smith, 1952). This clearly separated the organic compound from iodide ion, the former being detected by ultraviolet photography and the latter by spraying with starch solution and exposure to chlorine vapour. […] It was dissolved in 0 9 per cent saline before injection. […] C. for 4 hours at pH 4, 6, 7 and 9 and the reaction mixtures examined by paper electrophoresis. […] The radioactivity of these planchettes when the organs were being counted was used to calculate the differential absorption ratio (D.A.R.), (Marrian and Maxwell, 1956). In most experiments with the bromo-compound, the time required to count the organ necessitated a decay correction, calculated from the known half-life of 82Br-bromine (36 ? 0*2 hours). […]
# [5] = Attempted exchange reactions with ammonium 82Br-bromide in vitro; type: physicochemical; settings: reactants in molar ratio; lower detection limit 2.0 per cent
# Text: as §1
compound,measurement,setting,value
"Cc1c(C)c(OP(=O)(O)O)c([131I])c([131I])c1OP(=O)(O)O [III, 2: 3-dimethyl-5: 6-di-1311-iodo-I: 4-benzohydroquinone diphosphate]",radioactivity of the thyroid,[1]; 10 mg,no more radioactivity than the surrounding tissue
same,form of the label half an hour after injection,"[2]; 10 mg, by comparison with reported iodide distribution",much of the label derived from compound (III) is present as free iodide ion
same,iodide ion in stomach contents and urine (paper electrophoresis),"[2]; 10 mg, first 3 hours",contain large amounts of iodide ion
same,antimitotic properties,"chick fibroblasts; same test, ref Simon-Reuss, unpublished",inactive
"Cc1cc(OP(=O)(O)O)c2ccccc2c1OP(=O)(O)O [Synkavit, tetrasodium 2-methyl-I: 4-naphthohydro-quinone diphosphate]",accumulation in tumour tissue,[3],can accumulate in tumour tissue for short periods
"Cc1c([82Br])c(OP(=O)([O-])[O-])c2ccccc2c1OP(=O)([O-])[O-].[Na+].[Na+].[Na+].[Na+] [II, tetrasodium 2-methyl-3-82Br-bromo-I: 4-naphthohydroquinone diphosphate]",plasma share of the radioactivity of the whole blood,[4]; 1 mg i.v.,~67 per cent
same,radioactivity associated with the blood,"[4]; after 30 minutes, 1 mg i.v.",about 15 per cent of the injected dose
same,radioactivity excreted in the urine,"[4]; of a 1 mg (10.6 uC) dose, during 48 hours",30-35 per cent
same,D.A.R. of the tumour compared with other organs,"[1]; 1 mg i.v., only exceeded by stomach and contents",consistently higher than any of the above organs
same,form of radioactivity in stomach contents (paper electrophoresis),[2]; 6 hours after injection of 10 mg,present as bromide ion
same,form of radioactivity in urine (paper chromatography),[2]; rat given 5 mg intravenously,most of the radioactivity was present as bromide ion
same,injected compound in urine,[2]; urine collected from 0 to 2 hours,small amounts
same,injected compound in urine,[2]; urine collected from 2 to 6 hours after injection,None of the injected compound could be detected
same,antimitotic properties,"chick fibroblasts; ref Friedmann, Marrian and Simon-Reuss, 1952",established
Cc1c(Br)c(OP(=O)([O-])[O-])c2ccccc2c1OP(=O)([O-])[O-].[Na+].[Na+].[Na+].[Na+] [Tetrasodium 2-methyl-3-bromo-1 4-naphthohydroquinone diphosphate],exchange with ammonium 82Br-bromide,[5],no exchange could be detected
